# Results as given in US12466819B2, “Tricyclic compounds with OMA1/OPA1 modulatory properties” (712 North Inc., priority 2019, dated 2025).
# “Also recorded” adds a separate entry of the source. Where two headings read alike, the source gives them in different places.
# Legend:
# [1] = molecular target: T1, OMA1 protease (OPA1 cleavage) (Homo sapiens, UniProt Q96E52); assay: OPA1 cleavage / OMA1 activation in 293T cells by OPA1 Western blotting; format: cell-based; conditions: for critical CCCP concentration (threshold-level) for L-OPA1 cleavage after preincubation with compound: 30 μM compound for 60 minutes; for OPA1 cleavage by compound alone, 100 μM: 100 μM (up to 100 μM for VI); for OPA1 cleavage with compound plus 1 μM CCCP: 60 minutes compound (30 μM MMP2/9 inhibitor IV, 300 μM temozolomide, 100 μM amoxapine), then 1 μM CCCP for 30 minutes
# T1 construct: endogenous in cells; host or cells: 293T cells
# T1 sequence (Q96E52 144-524): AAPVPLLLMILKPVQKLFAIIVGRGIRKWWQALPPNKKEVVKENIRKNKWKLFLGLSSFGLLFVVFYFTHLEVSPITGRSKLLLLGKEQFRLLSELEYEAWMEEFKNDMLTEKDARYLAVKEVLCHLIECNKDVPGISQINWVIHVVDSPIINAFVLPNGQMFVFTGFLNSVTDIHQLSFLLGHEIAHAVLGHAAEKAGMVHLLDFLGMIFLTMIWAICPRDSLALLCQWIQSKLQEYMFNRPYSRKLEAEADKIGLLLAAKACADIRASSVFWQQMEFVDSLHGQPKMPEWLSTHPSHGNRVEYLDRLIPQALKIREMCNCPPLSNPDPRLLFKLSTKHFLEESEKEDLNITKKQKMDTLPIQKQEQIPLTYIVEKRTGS
# Procedure: FIG. 6. A: 293T cells were treated with 0 μM, 1 μM, 2 μM, 3 μM, 4 μM, or 5 μM CCCP for 30 minutes after which OPA1 was analyzed by Western blotting. […] E: OPA1 cleavage in Neuro2A cells treated with 30 μM of the indicated agents for 90 minutes (60 min preincubation plus 30 min of CCCP).
# FIG. 7. Compounds of present invention can lower CCCP-levels for OMA1 activation gauged by OPA1 cleavage in Western blots. A-C: 293T cells were treated with the denoted concentrations of compound VII, IV and V for 60 minutes before CCCP was added for an additional 30 minutes. D-E: 293T cells were treated with the denoted concentrations of compound VII, IV and V for 6 hours before CCCP was added for an additional 30 minutes.
# FIG. 11. A: A likely binding pose of a compound of present invention illustrates aspects of the drug-target interaction. B: 293T cells were treated with the denoted concentrations of compound for 90 minutes before cells were harvested and analyzed by OPA1 Western blotting. C: 293T cells were treated with the denoted concentrations of compound VI for 60 minutes and another 30 minutes with 1 μM CCCP before cells were harvested and analyzed by OPA1 Western blotting.
# (§1) A nonlimiting example of a method of testing compounds for their efficacy to induce OPA1-cleavage and/or OMA1 activation is provided in FIG. 1, for which human 293T cells or mouse Neuro2A cells were treated with different agents and subsequently tested for OPA1-hydrolysis by Western blotting. […] OPA1 cleavage in these experiments is OMA1 dependent, because knock-down of the protease preserved L-OPA1 (FIG. 1B & 1C).
# A nonlimiting example illustrates specific features of certain compounds disclosed herein and teaches how potency of such compounds can be further improved. To this end, compound were analyzed for their potential to lower threshold-levels for OPA1 cleavage and/or OMA1 activation using the methods described in Example 3. In one example, L-OPA1 was cleaved in untreated 293T cells at concentrations ≥5 μM CCCP (FIG. 6A, top panel). […] Preincubation with 30 μM MMP2 inhibitor II (CAS #869577-51-5) lowered the threshold-level even further to about 1 μM CCCP (FIG. 6C, bottom panel). The skilled artisan can recognize how (and the not-so-skilled artisan certainly appreciates that) substitutions and modifications of the thiirane-opposed end of the molecule increased potency.
# [2] = test system: mitochondrial membrane potential Δψ
# Procedure: (§2) The mitochondrial inner membrane potential Δψ was measured with a cellular TMRE-assay, in which a reduction of Δψ results in a reduced TMRE signal (see insert in A). […] A: Vehicle only. […] D: compound VII. E: compound IV. F: compound V.
# (§3) It is well established in the art that CCCP can lower the mitochondrial membrane potential Δψ. […] 293T cells were cultured overnight with different compound concentrations after which TMRE fluorescence was measured with a fluorescence plate-reader (FIG. 10).
# [3] = molecular target: T2, OMA1 protease (OPA1 cleavage) (Mus musculus, UniProt Q9D8H7); assay: OPA1 cleavage in Neuro2A cells by OPA1 Western blotting; format: cell-based; conditions: 100 μM sorafenib; for OPA1 cleavage after 30 minutes: 5 μM CCCP, 1 μM valinomycin; for OPA1 cleavage after 3 hours: 100 μM trichostatin A
# T2 construct: endogenous in cells; host or cells: Neuro2A cells
# T2 sequence (Q9D8H7 140-521): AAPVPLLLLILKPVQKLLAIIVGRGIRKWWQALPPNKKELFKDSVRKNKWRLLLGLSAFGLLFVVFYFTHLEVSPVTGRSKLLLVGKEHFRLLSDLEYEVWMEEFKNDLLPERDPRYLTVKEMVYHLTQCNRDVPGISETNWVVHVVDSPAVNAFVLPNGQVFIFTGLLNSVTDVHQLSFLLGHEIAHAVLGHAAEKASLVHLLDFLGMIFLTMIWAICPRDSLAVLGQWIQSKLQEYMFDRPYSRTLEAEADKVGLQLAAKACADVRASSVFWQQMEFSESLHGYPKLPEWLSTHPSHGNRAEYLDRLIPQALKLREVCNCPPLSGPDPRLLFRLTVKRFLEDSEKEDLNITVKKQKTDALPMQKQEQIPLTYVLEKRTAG
# Description: FIG. 1. A: The YME1L1 protease regulates the OPA1 ratios under physiological conditions (a). The OMA1 protease converts all OPA1 isoforms to S-OPA1 under conditions broadly defined as stress conditions (b). […] OMA1 knock-down could prevent OPA1 hydrolyses in these experiments. C: Quantification of OMA1 protein levels in Western blots upon OMA1 knock-down (mean±S.D.; p≤0.05; n=3). D: Different chemicals and combinations of chemicals altered the OPA1 ratios in 293T cells. E: Neuro2A cells were treated with the indicated agents for 30 minutes or 3 hours, respectively.
# as §1
# Another example is provided in FIG. 1E, for which Neuro2A cells were treated with different reagents for 30 minutes or 3 hours prior to the assessment of OPA1 by Western blotting. Some compounds acted faster while others were slower in altering the OPA1 ratios. […] Trichostatin A had no effect even after 3 hours of treatment. […] In certain embodiments, a pharmaceutical composition comprising an effective amount of sorafenib or a derivate, a prodrug or a pharmaceutical acceptable salt thereof and an effective amount of temozolomide or a derivate, a prodrug or a pharmaceutical acceptable salt thereof is administered to a subject with cancer.
# [4] = test system: mitochondrial membrane potential Δψ; assay: TMRE live-cell assay in 293T cells; conditions: for impact on mitochondrial membrane potential Δψ (TMRE signal): overnight (18 hours), different compound concentrations
# Procedure: as §2, §3
# OMA1 = molecular target: T3, OMA1 (Homo sapiens, UniProt Q96E52); assay: Luciferase-based cellular reporter of enzymatic OMA1 activity in 293T cells; format: cell-based; conditions: 293T reporter cells; for OMA1 activation without stress-stimulus at 40 μM: overnight, no CCCP or valinomycin
# T3 construct: 293T cells stably transfected with the reporter enzyme were incubated with increasing concentrations of a compound and 30 nM valinomycin; endogenous in cells; host or cells: 293T cells stably transfected with a luciferase-based reporter enzyme (only the reporter is transfected, not OMA1)
# T3 sequence (Q96E52 144-524): T1 sequence (Q96E52 144-524)
# Procedure: FIG. 8. 293T cells expressing a luciferase-based cellular reporter were incubated for 1 hour with increasing concentrations of the denoted compounds in cell culture media with 30 nM valinomycin before luciferase substrate was added and light emission measured. OMA1 activity decreases the light signal of the reporter in this assay. A: Vehicle only. […] C: amoxapine. D: compound VII. E: compound IV. F: compound V.
# FIG. 9. 293T cells expressing a luciferase-based cellular reporter were incubated overnight with increasing concentrations of the denoted compounds. Luciferase substrate was added the next day and light emission measured. A: Vehicle only. […] C: amoxapine. D: compound VII. E: compound IV. F: compound V.
# The following non-limiting examples illustrate some aspects of the mechanism of action of the compounds disclosed herein. An alternative method of measuring enzymatic OMA1 activity makes use of a luciferase-based cellular reporter, which can be transiently or stably expressed in eukaryotic cells. In this assay, OMA1 cleaves the reporter enzyme upon activation and thereby obliterates the luciferase signal. 293T cells stably transfected with the reporter enzyme were incubated with increasing concentrations of a compound and 30 nM valinomycin. Valinomycin is known in the art to induce OPA1 cleavage (see, for example, Head B., et al. “Inducible proteolytic inactivation of OPA1 mediated by the OMA1 protease in mammalian cells.” J Cell Biol. 2009; 187(7):959-66, as well as FIG. 1E). […] This specific example illustrates how compounds of present invention can activate OMA1 under conditions that would otherwise not lead to OMA1 activation. This example also provides an independent validation of the results obtained by Western blotting.
# Incubation time is a variable of OMA1 activation for certain compounds (see, for example, sorafenib in FIG. 1E). To investigate whether compounds of present disclosure would activate OMA1 in the absence of a stress-stimulus such as CCCP or valinomycin, reporter cells were incubated with increasing compound concentrations overnight (FIG. 9). […]
# [5] = 293T cells, then CCCP for another 30 minutes
# [6] = 293T cells, 90 minutes, absence of CCCP
# [7] = 293T cells, pre-incubation of 6 hours before CCCP for an additional 30 minutes
# [8] = cells treated 60 minutes with compound, then CCCP for another 30 minutes
smiles,measurement,setting,value
O=S(=O)(CC1CS1)c1ccc(Oc2ccccc2)cc1 (stereo not drawn) [MMP2/9 inhibitor IV],critical CCCP concentration (threshold-level) for L-OPA1 cleavage after preincubation with compound,[1]; [5],about 2 μM
same,"OPA1 cleavage by compound alone, 30 μM","[1]; 293T cells, 30 μM, 90 minutes, absence of CCCP",did not induce OPA1 cleavage
same,"OPA1 cleavage by compound alone, 100 μM",[1]; [6],no effects on L-OPA1
same,OPA1 cleavage with compound plus 1 μM CCCP,[1]; 293T cells,led to OPA1 cleavage
same,impact on mitochondrial membrane potential Δψ (TMRE signal),[2],only little impact on Δψ
N#CC(C#N)=NNc1cccc(Cl)c1 [CCCP],OPA1 cleavage after 30 minutes,[3],enough to induce OPA1 cleavage
same,OPA1 cleavage by 1 μM CCCP alone,"[1]; 293T cells, 1 μM CCCP, 30 minutes",did not induce OPA1 cleavage
same,L-OPA1 cleavage by 10 μM CCCP,"[1]; 293T cells, 10 μM CCCP, 30 minutes",resulted in L-OPA1 cleavage
same,CCCP concentration at which L-OPA1 was cleaved,"[1]; untreated 293T cells, CCCP 30 minutes",≥ 5 µM
same,TMRE signal with 0.6 μM CCCP,[4]; 0.6 μM CCCP,significantly reduced the TMRE signal
O=C1Nc2ccccc2Oc2ccc(S(=O)(=O)CC3CO3)cc21 (stereo not drawn) [Compound V],efficacy in OPA1 cleavage in the presence of CCCP,"[1]; 293T cells, 60 minutes compound, then CCCP 30 minutes",some efficacy; also recorded: overall little activity
same,OPA1 cleavage at the tested concentrations after extended pre-incubation,[1]; [7],did result in OPA1 cleavage
same,potency (effective dose) after extended pre-incubation,[1]; [7],about 1 μM
same,impact on mitochondrial membrane potential Δψ (TMRE signal),[4],only little impact on Δψ
Clc1ccc2c(c1)C(N1CCNCC1)=Nc1ccccc1O2 [amoxapine],"OPA1 cleavage by compound alone, 100 μM",[1]; [6],no effect on OPA1 cleavage; also recorded: no perceptible effects
same,OPA1 cleavage with compound plus 1 μM CCCP,[1]; 293T cells,OPA1 cleavage was observed
same,OMA1 activation without stress-stimulus at 40 μM,OMA1,OMA1 activation was noted
same,impact on mitochondrial membrane potential Δψ (TMRE signal),[4],only little impact on Δψ
O=C1Nc2ccccc2Oc2ccc(S(=O)(=O)CC3CS3)cc21 (stereo not drawn) [Compound VI],conversion of L-OPA1 isoforms at 300 nM,"[1]; 293T cells, 300 nM compound, presence of 1 μM CCCP",fully convert all L-OPA1 isoforms
same,"OPA1 cleavage by compound alone, 100 μM",[1]; [6],did not induce OPA1 cleavage
same,effective dose (OPA1 cleavage),"[1]; 293T cells, 60 minutes compound, another 30 minutes with 1 μM CCCP",300 nM
same,effective dose better than compound IV,"[1]; 293T cells, with CCCP",10 times
same,more potent in inducing OPA1 hydrolysis than MMP2/9 inhibitor IV or amoxapine,"[1]; 293T cells, with CCCP",100 times
CNC(=O)c1cc(Oc2ccc(NC(=O)Nc3ccc(Cl)c(C(F)(F)F)c3)cc2)ccn1 [sorafenib],OPA1 cleavage after 30 minutes,[3],only little effect
same,OPA1 cleavage after 3 hours,[3],L-OPA1 was completely converted
CS(=O)(=O)Nc1ccc(Oc2ccc(S(=O)(=O)CC3CO3)cc2)cc1 (stereo not drawn) [MMP2 inhibitor II],critical CCCP concentration (threshold-level) for L-OPA1 cleavage after preincubation with compound,[1]; [5],about 1 μM
same,effective dose (OPA1 cleavage),[1]; [8],about 30 μM
C=CCSc1ccc2c(c1)C(N1CCNCC1)=Nc1ccccc1O2 [VII],OPA1 cleavage at the tested concentrations after extended pre-incubation,[1]; [7],did result in OPA1 cleavage
same,effective dose (OPA1 cleavage),[1]; [8],about 10 μM
same,increase of potency compared to amoxapine,[1]; from effective doses in 293T cells,about 3 fold
same,OMA1 activation without stress-stimulus at 40 μM,OMA1,OMA1 activation was noted
same,impact on mitochondrial membrane potential Δψ (TMRE signal),[4],only little impact on Δψ
"CC(/C=C/C(=O)NO)=C\[C@@H](C)C(=O)c1ccc(N(C)C)cc1 [Trichostatin A, trichostatin A]",OPA1 cleavage after 3 hours,[3],no effect
CC(C)[C@@H]1NC(=O)[C@H](C)OC(=O)[C@@H](C(C)C)NC(=O)[C@@H](C(C)C)OC(=O)[C@H](C(C)C)NC(=O)[C@H](C)OC(=O)[C@@H](C(C)C)NC(=O)[C@@H](C(C)C)OC(=O)[C@H](C(C)C)NC(=O)[C@H](C)OC(=O)[C@@H](C(C)C)NC(=O)[C@@H](C(C)C)OC1=O [valinomycin],OPA1 cleavage after 30 minutes,[3],enough to induce OPA1 cleavage
same,effect of 30 nM valinomycin alone on reporter signal,"OMA1; 1 hour, 30 nM valinomycin, vehicle only",only little effects
"C=CCSc1ccc2c(c1)C(=O)Nc1ccccc1O2 [IV, 2-(allylthio)dibenzo[b,f][1,4]oxazepin-11(10H)-one]",impact on mitochondrial membrane potential Δψ (TMRE signal),[4],only little impact on Δψ
